# Patent publication US6531509B2, “Stable gabapentin containing more than 20 ppm of chlorine ion” (Teva Pharmaceutical Industries Ltd., priority 2000, dated 2003)
# What was measured:
# cardiozole cramp = conditions: in animals; cited from earlier work
# [1] = Long-term storage stability of purified gabapentin (lactam formation, HPLC vs. standard); type: physicochemical; conditions: purified bulk gabapentin
# Excerpt: Gabapentin purified according to these procedures contains less than 0.5% lactam as measured by HPLC vs. standard.
# [2] = according to Augart; cited from earlier work
Compound,effect against cardiozole cramp (cardiozole cramp),amount of lactam after storage ([1]; a year of storage at 25° C. and 50% relative humidity),conversion of gabapentin to its corresponding lactam ([1]; a year of storage at 25° C. and 60% relative humidity),amount of lactam after storage ([1]; a year of storage at 55° C. and 50% relative humidity),toxicity relative to gabapentin [2]
"NCC1(CC(=O)O)CCCCC1 [Gabapentin, 1-(aminomethyl)-1-cyclohexaneacetic acid]",protective effect against cardiozole cramp,less than 0.5 % by weight,≤ 0.2 % by weight of gabapentin,less than 0.5 % by weight,–
O=C1CC2(CCCCC2)CN1 [lactam],–,–,–,–,higher toxicity than gabapentin
